Assay results published in patent US20180073018A1, “COMPOSITIONS AND METHODS FOR SPECIFIC REACTIVATION OF HIV LATENT RESERVOIR” (priority 2015, published 2018).

System: TZM-bI cells
Assay: CellTiter-Glo luminescent cell viability assay in TZM-bI cells
Assay type: cell-based
Conditions: TZM-bI, 5,000 nM
Protocol: FIG. 10A, FIG. 10B: TZM-bI cells were infected with indicated lentiviruses for 1 d and triple antibiotic selection with puromycin/hygromycin/zeoin (P/H/Z) was maintained for 4 d before passage, OneGlo luciferase reporter assay (FIG. 10A) and CellTiter-Glo® luminescent cell viability assay (FIG. 10B). FIG. 10C, FIG. 10D: CHME5 cells were infected with indicated lentiviruses and cultured for 5 d in the absence or presence of P/H/Z triple selection. Flow cytometry analysis was performed for reactivation efficiency (FIG. 10C) and total survival cell number (FIG. 10D). FIG. 10E: Caspase-Glo® 3/7 Assay was performed at 2 dpi to evaluate apoptotic cell death. […] FIG. 10F, FIG. 10G: The 2D10 cells were infected for 1 and 4 dpi, and the reactivation efficiency (FIG. 10F) and relative total survival cell number (FIG. 10G) were determined by flow cytometry. *p<0.05 and **p<0.01 indicate statistical significance by ANOVA and FLSD test.
FIG. 12A, FIG. 12B, FIG. 12C: The dCas9-VPH stable TZM-bI cells were treated with SAHA or infected with indicated msgRNAs lentivirus for 2-4 d before luminescence reporter assay (FIG. 12A) and CELLTITER-GLO® luminescent cell viability assay (FIG. 12B). […]
The cell growth/proliferation was determined by the trypan blue exclusion hemocytometry, and CELLTITER-GLO luminescence viability assay (Promega). […]

Question: For `O=C(CCCCCCC(=O)Nc1ccccc1)NO` [SAHA, suberoylanilide hydroxamic acid], which cell viability is on record?
Answer: Its cell viability is “killed all the cells”.
